For eight molecules, inhibition and EC50 results are on record in US10604514B2, “6-(5-membered heteroaryl)isoquinolin-3-yl carboxamides and preparation and use thereof” (Samumed, LLC, priority 2017, dated 2020).

Read-outs that look alike come from different tables or passages of the source.

The test system of assay [1] is Wnt activity (Sp5-Luc reporter in SW480 colon carcinoma cells). The assay is described as follows: Wnt activity screening assay (Sp5-Luc reporter gene assay). In kind it is cell-based, human. The settings on record: Homo sapiens; for inhibition at 10 µM: SW480, read-out: percent inhibition at 10 μM; for EC50: Sp5-Luc reporter, SW480 cells, 36 to 48 hours. The method, boiled down:
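SW480 cells stably carrying an Sp5 promoter (eight TCF/LEF sites)-firefly luciferase reporter were plated in DMEM with 1% FBS and treated with a 10-point, 1:3 dilution series from 10 μM (0.1% DMSO) for 36 to 48 h at 37° C. Luminescence was normalized to DMSO controls, and EC50 came from four-parameter nonlinear regression.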

Another assay addresses GSK3β kinase (Homo sapiens (Human), UniProt P49841). The assay is described as follows: GSK3β kinase assay (Ser/Thr 09 peptide Z-lyte, FRET).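 Further: Coumarin/fluorescein emission ratio converted to percent phosphorylation against unphosphorylated (0%) and phosphorylated (100%) controls, 1 h compound incubation at room temperature, 11-point threefold dilutions from 10 µM, run in duplicate.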 In kind it is biochemical. Particulars: method text calls the value IC50.
The subject of assay [2] is Tau phosphorylation at Ser396 (pSer396), SH-SY5Y cells. The assay is described as follows: Tau phosphorylation at Ser396 (pSer396) in SH-SY5Y cells, ELISA/western blot.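 Further: cell lysates probed for reduced Tau pSer396 via ELISA (colorimetric) or western blot (chemiluminescence), both with one shared pSer396 antibody, EC50 for lowering phosphorylation.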 The settings on record: Homo sapiens; SH-SY5Y cells, overnight (16-18 h); read-out: pSer396 Tau EC50. In kind it is cell-based, human. In general terms: ELISA stands for enzyme-linked immunosorbent assay.

For assay [3], the system named is SW480 colon carcinoma cells. Nature of the assay: Cell viability assay (CellTiter-Glo) in SW480 cells.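 On all read-outs here: SW480 cells stably carrying an Sp5-luciferase TCF/LEF reporter, luminescent ATP signal as viability measure, DMSO-treated cells as control.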 In kind it is cell-based, human. The settings on record: Homo sapiens; for EC50: 96 h, cell viability, SW480 cells, four days, CellTiter-Glo; for inhibition at 10 µM: SW480, read-out: percent inhibition at 10 μM. (ATP-based viability assays read luminescence as a measure of living cells.)

Assay [4] concerns LL29 cells (primary human fibroblasts derived from IPF patients), α-smooth muscle actin. Nature of the assay: Inhibition of fibrotic process: αSMA in TGF-β1-treated primary human fibroblasts from IPF patients (LL29 cells). The settings on record: Homo sapiens, Fibroblast, 96 h; % αSMA-positive LL29 cells, TGF-β1 20 ng/mL, 4 days. Type of assay: cell-based. Summed up:
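IPF-patient lung fibroblasts (LL29) were stimulated with TGF-β1 (20 ng/mL) in 1% FBS medium with compound (11-point 1:2 series, 0.1% DMSO) for 4 days at 37 °C. Fixed cells were immunostained for αSMA and imaged, excluding SYTOX-positive dead cells. The % αSMA-positive cells was normalized to TGF-β1/DMSO control wells.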

Another assay deals with IL-6. Nature of the assay: IL-6 inhibition in LPS-stimulated human peripheral blood mononuclear cells (HTRF). Particulars: Homo sapiens, PBMC; for inhibition at 10 µM: read-out: percent value in parentheses below EC50 >10; for EC50: IL-6, LPS-stimulated huPBMCs, HTRF. Type of assay: cell-based. The method, boiled down: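 Fresh human PBMCs (5000 cells/well, 1% FBS RPMI) preincubated with compound (10-point 1:3 series from 10 μM, 0.25% DMSO) 2 h at 37 °C, then stimulated with 50 ng/mL E. coli LPS for 22 h. IL-6 by HTRF 665/620 ratio; DMSO-normalized, EC50 from 4-parameter fit.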

The next assay addresses DYRK1A kinase (Homo sapiens (Human), UniProt Q13627). The assay is described as follows: DYRK1A kinase assay (Ser/Thr 18 peptide Z-lyte, FRET).
[5] abbreviates: DYRK1A kinase, method text calls the value IC50.

Chain of GSK3β kinase (P49841 whole entry): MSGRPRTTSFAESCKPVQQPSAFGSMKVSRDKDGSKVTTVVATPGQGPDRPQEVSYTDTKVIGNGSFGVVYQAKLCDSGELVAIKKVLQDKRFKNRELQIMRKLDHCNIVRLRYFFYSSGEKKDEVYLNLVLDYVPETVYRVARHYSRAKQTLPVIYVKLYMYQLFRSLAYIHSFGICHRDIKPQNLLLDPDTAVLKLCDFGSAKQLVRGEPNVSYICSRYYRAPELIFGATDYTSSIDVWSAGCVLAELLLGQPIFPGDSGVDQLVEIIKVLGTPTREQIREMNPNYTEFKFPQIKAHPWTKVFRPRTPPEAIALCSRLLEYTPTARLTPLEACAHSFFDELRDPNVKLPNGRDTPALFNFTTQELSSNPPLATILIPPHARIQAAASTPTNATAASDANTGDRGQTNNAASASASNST

As for `Cc1nnc(-c2ccc3cnc(NC(=O)CN4CCOCC4)cc3c2)n1C` [Compound 15, N-(6-(4,5-Dimethyl-4H-1,2,4-triazol-3-yl)isoquinolin-3-yl)-2-morpholinoacetamide], the inhibition at 10 µM in assay [1] is 40.1%; in assay [3], 38%; in the assay with IL-6, 15.8%. Moreover, the 50% effective concentration (EC50) (in general, the concentration giving half of the maximal effect) was above 10 µM in assay [1]; 0.059 µM on GSK3β kinase; 0.981 µM in assay [2]; above 10 µM in assay [3]; 0.896 µM in assay [4]; above 10 µM in the assay with IL-6. This molecule showed a concentration giving a half-maximal response (EC50) at DYRK1A kinase (setting [5]) of 0.061 µM.

With `[2H]C1([2H])OC([2H])([2H])C([2H])([2H])N(CC(=O)Nc2cc3cc(-c4cnn(C)c4)ccc3cn2)C1([2H])[2H]` [Compound 39, N-(6-(1-Methyl-1H-pyrazol-4-yl)isoquinolin-3-yl)-2-(morpholino-d8) acetamide], the inhibition at 10 µM in assay [1] stood at 36.3%; in assay [3] it was 27.3%. The EC50 in assay [1] is above 10 µM; on GSK3β kinase it was 0.096 µM; in assay [2], 0.538 µM; in assay [3] it was above 10 µM; in assay [4], 2.59 µM; in the assay on IL-6, 9.39 µM. The same molecule registered an EC50 at DYRK1A kinase of 0.015 µM.

As for `[2H]c1c([2H])c(C(=O)Nc2cc3cc(-c4cnc(C)n4C)ccc3cn2)c([2H])c([2H])c1OC` [Compound 166, N-(6-(1,2-Dimethyl-1H-imidazol-5-yl)isoquinolin-3-yl)-4-methoxybenzamide-2,3,5,6-d4], the EC50 in assay [1] was 0.525 µM; at GSK3β kinase it was 6.38 µM; in assay [2] it was above 10 µM; in assay [3], 0.671 µM; in assay [4], 1.88 µM; with IL-6, 3.55 µM. It took 0.009 µM to reach a half-maximal effect on DYRK1A kinase (EC50).

In the case of `Cc1nnc(-c2ccc3cnc(NC(=O)N4CCC(N5CCOCC5)CC4)cc3c2)s1` [Compound 128, N-(6-(5-Methyl-1,3,4-thiadiazol-2-yl)isoquinolin-3-yl)-4-morpholinopiperidine-1-carboxamide], the EC50 was 3.18 µM in assay [1]; 0.025 µM on GSK3β kinase; 0.491 µM in assay [2]; 4.37 µM in assay [3]; 6.63 µM in assay [4]; above 10 µM in the assay with IL-6. This molecule also yielded an EC50 on DYRK1A kinase (setting [5]) of 0.016 µM. The inhibition at 10 µM in the assay with IL-6 was 8%.

As to `Cn1cc(-c2cc(F)c3cnc(NC(=O)[C@H]4CC[C@H](N(C)C)CC4)cc3c2)cn1` [Compound 1, trans-4-(Dimethylamino)-N-(8-fluoro-6-(1-methyl-1H-pyrazol-4-yl)isoquinolin-3-yl)cyclohexane-1-carboxamide], the EC50 amounted to 0.239 µM in assay [1]; 0.107 µM at GSK3β kinase; 0.368 µM in assay [2]; 0.839 µM in assay [3]; 0.445 µM in assay [4]; 3.04 µM in the assay with IL-6. At DYRK1A kinase (setting [5]), this molecule yielded an EC50 of 0.004 µM.

Take `Cc1nnc(-c2ccc3cnc(NC(=O)N4CCOCC4)cc3c2)s1` [Compound 36, N-(6-(5-Methyl-1,3,4-thiadiazol-2-yl)isoquinolin-3-yl)morpholine-4-carboxamide]: the EC50 in assay [1] was 3.73 µM; on GSK3β kinase, 0.079 µM; in assay [2], 0.843 µM; in assay [3], 5.7 µM; in assay [4], 5.2 µM; in the assay on IL-6 it was above 10 µM. Further, a half-maximal effect at DYRK1A kinase (setting [5]) (EC50) was put at 0.012 µM. Also, the inhibition at 10 µM in the assay on IL-6 came to 4%.

Take `Cn1cc(-c2cc(F)c3cnc(NC(=O)[C@H]4CC[C@H](NCC(F)F)CC4)cc3c2)cn1` [Compound 103, trans-4-((2,2-Difluoroethyl)amino)-N-(8-fluoro-6-(1-methyl-1H-pyrazol-4-yl)isoquinolin-3-yl)cyclohexane-1-carboxamide]: the EC50 is 2.97 µM in assay [1]; 0.03 µM at GSK3β kinase; 1.3 µM in assay [2]; 6.08 µM in assay [3]; 0.392 µM in assay [4]; 1.08 µM in the assay on IL-6. This molecule had an EC50 at DYRK1A kinase (setting [5]) of 0.005 µM.

On to `Cc1nnc(-c2ccc3cnc(NC(=O)N4CCC(N(C)CC(F)F)CC4)cc3c2)s1` [Compound 32, 4-((2,2-Difluoroethyl)(methyl)amino)-N-(6-(5-methyl-1,3,4-thiadiazol-2-yl)isoquinolin-3-yl)piperidine-1-carboxamide], for which the inhibition at 10 µM turned out to be 30.5% in assay [1], 8.3% in assay [3] and 10.1% in the assay with IL-6. Further, the EC50 in assay [1] was above 10 µM; at GSK3β kinase it was 0.21 µM; in assay [2], 0.891 µM; in assay [3] it was above 10 µM; in assay [4] it was 0.771 µM; with IL-6, above 10 µM. This molecule also registered an EC50 at DYRK1A kinase (setting [5]) of 0.017 µM.
